Experimental data reported in the supplement of paper PMC5908809.

Tests used:
[1] = system: normal NK cells expanded with K562-aAPC; assay: percent inhibition of viability; higher = more inhibition; conditions: 72 h, IL-2 2.5 ng/mL
Experimental: (§1)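 Drug sensitivity and resistance testing on K562-aAPC-expanded normal NK cells: 5 concentrations (10-fold steps over a 10,000-fold range), 72 h at 37 °C, viability by CellTiter-Glo normalised to DMSO and benzethonium chloride controls; DSS from the fitted curve.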

[2] = system: DERL-7 (IL-2 2.5 ng/mL); assay: as above; conditions: 72 h
[3] = system: IMC-1 (IL-2 20 ng/mL); assay: as above; conditions: 72 h
[4] = system: KAI3 (IL-2 2.5 ng/mL); assay: as above; conditions: 72 h
[5] = system: KHYG-1 (IL-2 2.5 ng/mL); assay: as above; conditions: 72 h
[6] = system: NK-92 (IL-2 2.5 ng/mL); assay: as above; conditions: 72 h
[7] = system: NK-YS (IL-2 2.5 ng/mL); assay: as above; conditions: 72 h
[8] = system: NKL (IL-2 2.5 ng/mL); assay: as above; conditions: 72 h
[9] = system: SNK-6 (IL-2 2.5 ng/mL); assay: as above; conditions: 72 h
[10] = system: YT (IL-2 2.5 ng/mL); assay: as above; conditions: 72 h
[11] = system: normal primary NK cells, pool 1 (3 donors) (IL-2 2.5 ng/mL); assay: as above; conditions: 72 h
[12] = system: normal primary NK cells, pool 1 (3 donors), resting (IL-2 0 ng/mL); assay: as above; conditions: 72 h
[13] = system: normal primary NK cells, pool 2 (3 donors) (IL-2 2.5 ng/mL); assay: as above; conditions: 72 h
[14] = system: normal primary NK cells, pool 3 (3 donors) (IL-2 2.5 ng/mL); assay: as above; conditions: 72 h
[15] = system: normal NK cells expanded with K562-aAPC; assay: drug sensitivity score (DSS) (DSS units); higher = more sensitive; extreme values may be limits of the assay; conditions: 72 h; IL-2 2.5 ng/mL
Experimental: as §1

[16] = system: DERL-7 (IL-2 2.5 ng/mL); assay: as above; conditions: 72 h
[17] = system: IMC-1 (IL-2 20 ng/mL); assay: as above; conditions: 72 h
[18] = system: KAI3 (IL-2 2.5 ng/mL); assay: as above; conditions: 72 h
[19] = system: KHYG-1 (IL-2 2.5 ng/mL); assay: as above; conditions: 72 h
[20] = system: NK-92 (IL-2 2.5 ng/mL); assay: as above; conditions: 72 h
[21] = system: NK-YS (IL-2 2.5 ng/mL); assay: as above; conditions: 72 h
[22] = system: NKL (IL-2 2.5 ng/mL); assay: as above; conditions: 72 h
[23] = system: SNK-6 (IL-2 2.5 ng/mL); assay: as above; conditions: 72 h
[24] = system: YT (IL-2 2.5 ng/mL); assay: as above; conditions: 72 h
[25] = system: normal primary NK cells, pool 1 (3 donors) (IL-2 2.5 ng/mL); assay: as above; conditions: 72 h
[26] = system: normal primary NK cells, pool 1 (3 donors), resting (IL-2 0 ng/mL); assay: as above; conditions: 72 h
[27] = system: normal primary NK cells, pool 2 (3 donors) (IL-2 2.5 ng/mL); assay: as above; conditions: 72 h
[28] = system: normal primary NK cells, pool 3 (3 donors) (IL-2 2.5 ng/mL); assay: as above; conditions: 72 h

O=C(/C=C/c1cccc(S(=O)(=O)Nc2ccccc2)c1)NO [Belinostat] (max concentration tested 10000 nM)
percent inhibition of viability [%]
Conditions | 1 nM | 10 nM | 100 nM | 1000 nM | 10000 nM
[1] | 0.58 | 6.04 | 16.8 | 99.6 | 101
[2] | -0.73 | 5.09 | 23.1 | 100 | 101
[3] | 2.36 | -0.13 | 20.2 | 99.6 | 101
[4] | 7.26 | 14.3 | 51.9 | 94.6 | 109
[5] | -0.75 | -0.46 | 35 | 108 | 110
[6] | 5.07 | 14.1 | 52.2 | 107 | 106
[7] | -1.97 | -1.76 | 21 | 97.5 | 109
[8] | 5.5 | 10.4 | 37.5 | 87.9 | 108
[9] | -0.17 | -5.01 | 28.3 | 97.2 | 101
[10] | 4.17 | 3.96 | 11.8 | 105 | 109
[11] | 3.19 | 9.82 | 43.7 | 96.4 | 98.7
[12] | -4.94 | 0.46 | 53.2 | 87.1 | 91.7
[13] | -8.09 | 0.56 | 31 | 93.9 | 95.6
[14] | -2.35 | -1.35 | 15.5 | 96.3 | 98.3

Conditions | drug sensitivity score
[15] | 20.8
[16] | 21.6
[17] | 21.2
[18] | 24.1
[19] | 22.9
[20] | 24.5
[21] | 20.9
[22] | 20.9
[23] | 21.7
[24] | 20.1
[25] | 22.5
[26] | 22.9
[27] | 21.2
[28] | 20.1

Cn1cnc2c(F)c(Nc3ccc(Br)cc3F)c(C(=O)NOCCO)cc21 [Binimetinib] (max concentration tested 1000 nM)
percent inhibition of viability [%]
Conditions | 0.1 nM | 1 nM | 10 nM | 100 nM | 1000 nM
[1] | 1.57 | -5.49 | -0.07 | 6.65 | 16.2
[2] | 1.19 | 7.3 | 10.5 | 16.3 | 33.7
[3] | -6 | -0.56 | -0.39 | 4.96 | 6.74
[4] | -1.37 | 4.03 | 7.85 | 24.3 | 29.6
[5] | -8.34 | -1.29 | 0.25 | 24.1 | 42.7
[6] | -10.1 | -5.18 | -13.1 | 0.36 | -1.28
[7] | -5.25 | -2.09 | -0.43 | 5.51 | 15.3
[8] | -7.91 | -8.09 | 19.3 | 43.6 | 53.2
[9] | -19.8 | -4.3 | -10.5 | -10.4 | -8.36
[10] | -6.43 | -3.81 | -0.11 | 2.57 | 13.4
[11] | -6.5 | 12.6 | 14.8 | 18.1 | 22.7
[12] | -4.5 | 21.4 | 12.5 | 9.21 | 17.1
[13] | -7.84 | -6.09 | 8.89 | -1.5 | 11
[14] | -5.24 | 2.75 | -0.18 | 2.58 | 2.52

Conditions | drug sensitivity score
[15] | 0.91
[16] | 3.71
[17] | 0
[18] | 4.5
[19] | 5.14
[20] | 0
[21] | 0.72
[22] | 10.4
[23] | 0
[24] | 0.31
[25] | 4.75
[26] | 1.99
[27] | 0
[28] | 0

CC[C@H](NC(=O)[C@H](C)NC)C(=O)N1C[C@@H](O)C[C@H]1Cc1c(-c2[nH]c3cc(F)ccc3c2C[C@@H]2C[C@H](O)CN2C(=O)[C@H](CC)NC(=O)[C@H](C)NC)[nH]c2cc(F)ccc12 [Birinapant] (max concentration tested 1000 nM)
percent inhibition of viability [%]
Conditions | 0.1 nM | 1 nM | 10 nM | 100 nM | 1000 nM
[1] | -2.92 | -0.28 | 2.8 | 10.2 | 38.9
[2] | 7.8 | 5.54 | 23.2 | 43.1 | 46.6
[3] | -3.47 | 1.41 | -0.22 | 1.34 | 45.6
[4] | 1.71 | -5.41 | -0.72 | 9.21 | 15.7
[5] | -2.97 | -5.19 | -7.39 | -1.77 | 17.7
[6] | -4.58 | -12.3 | 5.84 | 11.1 | 31
[7] | -2.88 | -9.14 | -8.38 | -5.45 | -8.45
[8] | 5.63 | 0.8 | 3.21 | 19.2 | 32.2
[9] | -1.62 | -1.64 | -7.31 | -10.8 | -16.1
[10] | 1.52 | -1.94 | 2.55 | 4.56 | 2.39
[11] | -9.47 | -11.8 | 3.46 | 0.49 | 69.2
[12] | -23.1 | -28.9 | -10.4 | -2.86 | 73.8
[13] | -6.05 | -7.14 | -11.2 | 2.7 | 53.1
[14] | -4.73 | -7.57 | -8.06 | -3.61 | 38.2

Conditions | drug sensitivity score
[15] | 3.47
[16] | 10.5
[17] | 2.52
[18] | 1
[19] | 0.34
[20] | 2.35
[21] | 0
[22] | 3.5
[23] | 0
[24] | 0
[25] | 3.88
[26] | 3.83
[27] | 3.2
[28] | 1.6
